Several values for one entry are separate records, joined by “and”; a condition that tells them apart may be missing. Equal entries are not always repeated. Inconclusive results and toxic doses are left out. Rule for the calls: active = survival T/C of 150% or more; inactive = T/C below 125% in these data.
Tested on: P388 leukemia ip, CD2F1 mice, survival T/C
Test: NCI In Vivo Anticancer Drug Screen. Data for tumor model P388 Leukemia (intraperitoneal) in CD2F1 (CDF1) mice
Conditions: endpoint: median survival time, higher = longer survival
Procedure, shortened: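 Mice carrying the transplanted tumor received test compound or vehicle. Survival was recorded in each group, and the value is the treated-group measurement divided by that of the vehicle-treated control group.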

[1] = dose: 100.0 mg/kg/injection, schedule: Q04DX002 (ip), vehicle: saline with Tween-80
[2] = dose: 50.0 mg/kg/injection, schedule: Q01DX005 (ip), vehicle: Klucel (hydroxypropylcellulose) (HPC)
[3] = dose: 100.0 mg/kg/injection, schedule: Q01DX005 (ip), vehicle: Klucel (hydroxypropylcellulose) (HPC)
[4] = dose: 50.0 mg/kg/injection, schedule: Q01DX009 (ip), vehicle: saline with Tween-80
[5] = dose: 100.0 mg/kg/injection, schedule: Q01DX009 (ip), vehicle: saline with Tween-80
[6] = dose: 60.0 mg/kg/injection, schedule: Q01DX005 (ip), vehicle: Klucel (hydroxypropylcellulose) (HPC)
[7] = dose: 120.0 mg/kg/injection, schedule: Q01DX005 (ip), vehicle: Klucel (hydroxypropylcellulose) (HPC)
[8] = dose: 240.0 mg/kg/injection, schedule: Q01DX005 (ip), vehicle: Klucel (hydroxypropylcellulose) (HPC)
[9] = dose: 50.0 mg/kg/injection, schedule: Q01DX005 (ip), vehicle: saline with Tween-80
[10] = dose: 100.0 mg/kg/injection, schedule: Q01DX005 (ip), vehicle: saline with Tween-80
[11] = dose: 200.0 mg/kg/injection, schedule: Q01DX005 (ip), vehicle: saline with Tween-80
[12] = dose: 60.0 mg/kg/injection, schedule: Q01DX005 (ip), vehicle: saline
[13] = dose: 50.0 mg/kg/injection, schedule: Q01DX009 (ip), vehicle: Klucel (hydroxypropylcellulose) (HPC)
[14] = dose: 100.0 mg/kg/injection, schedule: Q01DX009 (ip), vehicle: Klucel (hydroxypropylcellulose) (HPC)
[15] = dose: 200.0 mg/kg/injection, schedule: Q01DX009 (ip), vehicle: Klucel (hydroxypropylcellulose) (HPC)
[16] = dose: 25.0 mg/kg/injection, schedule: Q01DX009 (ip), vehicle: Klucel (hydroxypropylcellulose) (HPC)
[17] = dose: 120.0 mg/kg/injection, schedule: Q01DX005 (ip), vehicle: saline with Tween-80

Measured: T/C

FC(F)(F)COc1ccc(-c2nnc(-c3ccc(OCC(F)(F)F)cc3)o2)cc1
inactive: [1] 90 % of control | dose: 200.0 mg/kg/injection, schedule: Q04DX002 (ip), vehicle: saline with Tween-80 87 % of control | dose: 400.0 mg/kg/injection, schedule: Q04DX002 (ip), vehicle: saline with Tween-80 86 % of control

Cc1ccc(/C=C2\SC(=S)N(C3CC3)C2=O)cc1
inactive: [2] 97 % of control | [3] 95 % of control | dose: 200.0 mg/kg/injection, schedule: Q01DX005 (ip), vehicle: Klucel (hydroxypropylcellulose) (HPC) 93 % of control

CC(C)(C)SC(=O)c1ccco1
inactive: [4] 118 % of control | [5] 114 % of control

Cc1cc(-n2nnc3ccccc3c2=O)on1
inactive: [6] 114 % of control | [7] 101 % of control | [8] 119 % of control

C[n+]1cccc2c1-c1c(ccc[n+]1C)C2
inactive: dose: 50.0 mg/kg/injection, schedule: Q01DX005 (ip), vehicle: saline 108 % of control | dose: 100.0 mg/kg/injection, schedule: Q01DX005 (ip), vehicle: saline 105 % of control | dose: 200.0 mg/kg/injection, schedule: Q01DX005 (ip), vehicle: saline 104 % of control

NS(=O)(=O)c1ccc(CN2C(=O)c3ccccc3C2=O)cc1
inactive: [1] 110 % of control

O=C1CC2c3ccccc3C1c1ccccc12
inactive: [9] 95 % of control | [10] 94 % of control | [11] 96 % of control

O=C1CC(C2CCCCC2)C(=O)c2cc3cccnc3c(O)c21 (centres undefined)
inactive: [9] 101 % of control | [10] 99 % of control | [11] 93 % of control

C=CCC1OC(COC(=O)c2ccccc2)C(OC(=O)c2ccccc2)C1OC(=O)c1ccccc1 (centres undefined)
inactive: dose: 25.0 mg/kg/injection, schedule: Q01DX005 (ip), vehicle: Klucel (hydroxypropylcellulose) (HPC) 112 % of control | dose: 44.5 mg/kg/injection, schedule: Q01DX005 (ip), vehicle: Klucel (hydroxypropylcellulose) (HPC) 114 % of control | [2] 117 % of control | dose: 89.0 mg/kg/injection, schedule: Q01DX005 (ip), vehicle: Klucel (hydroxypropylcellulose) (HPC) 120 % of control | [3] 118 % of control

CCN(CC)CCO/N=C1\CC(c2ccc(OC)c(OC)c2)Oc2ccccc21 (centres undefined)
inactive: dose: 15.0 mg/kg/injection, schedule: Q01DX005 (ip), vehicle: saline 100 % of control | dose: 30.0 mg/kg/injection, schedule: Q01DX005 (ip), vehicle: saline 114 % of control | [12] 100 % of control and 105 % of control

CC(C)(C)C(=O)NC(Cc1cnc[nH]1)C(=O)O (centres undefined)
inactive: dose: 50.0 mg/kg/injection, schedule: Q01DX009 (ip), vehicle: saline 100 % of control | dose: 100.0 mg/kg/injection, schedule: Q01DX009 (ip), vehicle: saline 106 % of control | dose: 200.0 mg/kg/injection, schedule: Q01DX009 (ip), vehicle: saline 108 % of control

Cc1ccnc(N=Cc2ccccc2O)c1
inactive: [13] 104 % of control | [14] 100 % of control | [15] 100 % of control

CC(C)(C)N(Cc1ccccc1)C(O)Cc1c(-c2ccccc2)c(-c2ccccc2)c2n1CCC2 (centres undefined)
inactive: [6] 89 % of control | [7] 88 % of control

O=C1NCCCCC1(Cl)Cl
inactive: dose: 12.5 mg/kg/injection, schedule: Q01DX005 (ip), vehicle: saline with Tween-80 99 % of control | dose: 25.0 mg/kg/injection, schedule: Q01DX005 (ip), vehicle: saline with Tween-80 101 % of control | [9] 99 % of control and 103 % of control

O=C(O)CNC(=O)CNc1nc(Cl)nc(NCC(=O)NCC(=O)O)n1
inactive: [6] 97 % of control | [7] 96 % of control | [8] 93 % of control

CCOC(=O)C(=O)Nc1c(C(C)=O)cc(C)c(C)c1C#N
inactive: dose: 50.0 mg/kg/injection, schedule: Q01DX009 (ip), vehicle: saline + alcohol 92 % of control | dose: 100.0 mg/kg/injection, schedule: Q01DX009 (ip), vehicle: saline + alcohol 97 % of control | dose: 200.0 mg/kg/injection, schedule: Q01DX009 (ip), vehicle: saline + alcohol 96 % of control

Cc1cc(OCCCC[N+](C)(C)Cc2ccc(Br)o2)c(C(C)C)cc1Cl
inactive: dose: 1.56 mg/kg/injection, schedule: Q01DX009 (ip), vehicle: saline 91 % of control | dose: 3.13 mg/kg/injection, schedule: Q01DX009 (ip), vehicle: saline 100 % of control | dose: 6.25 mg/kg/injection, schedule: Q01DX009 (ip), vehicle: saline 103 % of control and 105 % of control

COc1cc2c(cc1C(C)c1ccc(F)cc1)OCO2 (centres undefined)
inactive: [9] 98 % of control | [10] 100 % of control | [11] 107 % of control

CC1CCN(C(=O)Nc2c(Cl)cccc2Cl)CC1
inactive: [6] 99 % of control | [7] 101 % of control | [8] 94 % of control

Cc1ccc(Nc2ccc(Cl)cc2[N+](=O)[O-])cc1
inactive: dose: 15.0 mg/kg/injection, schedule: Q01DX005 (ip), vehicle: Klucel + Tween-80 95 % of control | dose: 30.0 mg/kg/injection, schedule: Q01DX005 (ip), vehicle: Klucel + Tween-80 98 % of control | dose: 60.0 mg/kg/injection, schedule: Q01DX005 (ip), vehicle: Klucel + Tween-80 100 % of control and 94 % of control

CC(N)C(=O)OCN1C(=O)C2C3C=CC(C2C1=O)C1C(=O)N(COC(=O)C(C)N)C(=O)C31 (centres undefined)
inactive: dose: 25.0 mg/kg/injection, schedule: Q01DX009 (ip), vehicle: water 100 % of control | dose: 50.0 mg/kg/injection, schedule: Q01DX009 (ip), vehicle: water 100 % of control | dose: 100.0 mg/kg/injection, schedule: Q01DX009 (ip), vehicle: water 112 % of control | dose: 200.0 mg/kg/injection, schedule: Q01DX009 (ip), vehicle: water 121 % of control

O=C(NC(=O)c1cccc2ccccc12)NC(=S)c1ccccc1
inactive: dose: 100.0 mg/kg/injection, schedule: Q01DX001 (ip), vehicle: saline 92 % of control | dose: 200.0 mg/kg/injection, schedule: Q01DX001 (ip), vehicle: saline 88 % of control | dose: 400.0 mg/kg/injection, schedule: Q01DX001 (ip), vehicle: saline 86 % of control

CCc1onc(-c2noc(CC)c2C)c1C
inactive: [12] 98 % of control | dose: 120.0 mg/kg/injection, schedule: Q01DX005 (ip), vehicle: saline 104 % of control | dose: 240.0 mg/kg/injection, schedule: Q01DX005 (ip), vehicle: saline 107 % of control

CN(C)C1CS(=O)(=O)C1c1ccccc1 (centres undefined)
inactive: dose: 12.5 mg/kg/injection, schedule: Q01DX009 (ip), vehicle: saline with Tween-80 100 % of control and 110 % of control | dose: 25.0 mg/kg/injection, schedule: Q01DX009 (ip), vehicle: saline with Tween-80 110 % of control and 95 % of control | [4] 112 % of control and 95 % of control | [5] 102 % of control and 103 % of control and 97 % of control | dose: 200.0 mg/kg/injection, schedule: Q01DX009 (ip), vehicle: saline with Tween-80 102 % of control

CCCCCC1C(=O)CNC1(C(=O)OCC)C(=O)OCC (centres undefined)
inactive: dose: 12.5 mg/kg/injection, schedule: Q01DX009 (ip), vehicle: Klucel (hydroxypropylcellulose) (HPC) 104 % of control | [16] 108 % of control | [13] 104 % of control | [14] 88 % of control | [15] 89 % of control

CCOC(=O)C1C(c2ccc(OC)cc2)c2cc3c(cc2OC1(C)N1CCCC1)OCO3 (centres undefined)
inactive: [6] 98 % of control | [7] 96 % of control | [8] 93 % of control

Cc1c(N=Nc2cccc(Cl)c2Cl)c(-c2ccccc2)nn1C(=S)S
inactive: [9] 106 % of control | [10] 94 % of control | [11] 103 % of control

CC(C)(C)OOC(=O)Cc1ccccc1
inactive: dose: 60.0 mg/kg/injection, schedule: Q01DX005 (ip), vehicle: saline with Tween-80 104 % of control | [17] 122 % of control | dose: 240.0 mg/kg/injection, schedule: Q01DX005 (ip), vehicle: saline with Tween-80 122 % of control

COc1cc(C=O)cc(Br)c1O
inactive: [16] 108 % of control | [13] 108 % of control | [14] 108 % of control | [15] 105 % of control

CC1=NN(c2ccccc2)C(=O)/C1=C(\[O-])c1ccccc1.CC1=NN(c2ccccc2)C(=O)/C1=C(\[O-])c1ccccc1.CC1=NN(c2ccccc2)C(=O)/C1=C(\[O-])c1ccccc1.[Fe+3]
inactive: dose: 15.0 mg/kg/injection, schedule: Q01DX005 (ip), vehicle: saline with Tween-80 96 % of control and 97 % of control | dose: 30.0 mg/kg/injection, schedule: Q01DX005 (ip), vehicle: saline with Tween-80 101 % of control and 90 % of control | [17] 104 % of control and 87 % of control
